For one experiment, the system named is noise-damaged chinchilla. The experiment can be described thus: Live animal study in noise-damaged chinchilla. Format: in vivo.
The subject of experiment [1] is IHC ribbon synapses in murine SGN-IHC co-culture. The experiment can be described thus: Kainic acid excitotoxic trauma in SGN-IHC co-culture. It counts as cell-based. To be noted: for KA-induced shift of pre-synaptic densities from typical to apical distributions: quantitative evaluation. The source says: The previous findings were applied to a murine SGN-IHC co-culture model of excitotoxic trauma. In IHCs of undamaged co-cultures of auditory sensory epithelia (organs of Corti, OC) and associated spiral ganglion neurons (NC), most of the pre-synaptic C-terminal binding protein 2 (CtBP2)-immunoreactive puncta (small red dots) are located in a “typical,” cytoarchitectural position, located along the basal surface of the cell, below or surrounding the IHC nucleus (large red spheres). A marked shift from this typical CtBP2 basal immunoreactivity pattern to a more apical distribution pattern occurred after exposure to the excitotoxic glutamate analog, kainic acid (KA). […] The ability of HPN-07 to restore the structural integrity of ribbon synapses among IHCs following an excitotoxic trauma in this co-culture model is consistent with HPN-07 acting to promote synaptogenesis (i.e., re-innervation) in this context.
FIG. 6 summarizes a quantitative evaluation from a targeted comparison of the number and spatial distribution of ribbons among IHCs from untreated, BDNF-treated, or HPN-07-treated explants following excitotoxic exposure to KA. […] Each data point represents a composite of approximately ten independent measurements.

The test system of experiment [2] is PC12 cell line. Put plainly: NGF-induced neuritogenesis in PC12 cells. It counts as cell-based. The protocol: This NGF-induced neuritogenic response was apparently saturable at concentrations at and above 10 ng/mL in this context.
FIG. 4 depicts the percentage of PC12 cells with significant neurite outgrowth. The pattern observed here is similar to that observed for treatment-induced increases in average neurite length. Taken together, these evaluations support the interpretation that HPN-07 acts in concert with NGF to promote both de novo neurite outgrowth and changes in the stability or assembly kinetics of neurites in such a manner as to support increases in mean neurite length, both of which are desirable features for re-innervation of IHCs.

Experiment [3] deals with murine spiral ganglion (SG) tissue explants. The experiment can be described thus: Neuritogenesis in murine spiral ganglion explants. As to conditions: for neurite outgrowth induced by exogenous neurotrophic factor: at 10 μM (so in the source) relative to untreated controls, FIG. 24B, FIG. 26B. Format: cell-based, mouse.
Experiment [4] deals with PC12 cell line. As to conditions: cited from earlier work.

As for “2,4-disulfonyl α-phenyl tertiary butyl nitrone [HPN-07]”, the functional recovery entry in the experiment with noise-damaged chinchilla (long after the duration of treatment) is given as “progressive degree of functional recovery”. Further, the “inner hair cell neurite populations” value with noise-damaged chinchilla (relative to untreated controls) is recorded as “significantly greater inner hair cell neurite populations”. For the same molecule, the “neurite densities along the base of IHCs” value in experiment [1] (SGN-HC co-cultures following KA) is “increased neurite densities along the base of IHCs”. Moreover, the “number of total ribbons among IHCs” value in experiment [1] (after KA, compared with BDNF, FIG. 6) is recorded as “greater number of total ribbons”. In experiment [1] (post-excitotoxic treatment, 10 μM, FIG. 5), the “KA-induced apical shift of CtBP2 puncta and loss of PSD-95 co-labeling (IHC ribbon synapse integrity)” value was “reversed this pathologic shift”. Also, the “KA-induced shift of pre-synaptic densities from typical to apical distributions” value in experiment [1] (FIG. 6) was “reversed this pathologic change”. Also, in the experiment on PC12 cell line [2] (1 μM HPN-07 + 10 ng/mL NGF, 6 days, FIG. 3), the mean neurite lengths result is “markedly surpassed the maximum lengths achieved in the saturable NGF dose-escalation series”. Further, the “NGF-mediated neuritogenesis (mean neurite length)” value in the experiment on PC12 cell line [2] (1 μM HPN-07 + 1 and 5 ng/mL NGF, 6 days, FIG. 3) is given as “enhances”. For the same molecule, the “percentage of PC12 cells bearing neurites” value in the experiment with PC12 cell line [2] (HPN-07 + escalating doses of NGF, FIG. 4) was “significantly enhanced NGF-induced neuritogenesis”. In addition, the “neurite length, HPN-07 alone” value in the experiment on PC12 cell line [2] (low concentrations, no NGF) was “did not increase neurite length”. For the same molecule, the “potentiation of BDNF-induced neuritogenesis” value in experiment [3] (BDNF 10 ng/mL + HPN-07 0.1 μM, 48 hours, serum-free medium, FIG. 2) was “potentiated neuritogenesis”. Moreover, the “neurite outgrowth (number and length of neurites) from SG explants” value in experiment [3] (HPN-07 alone vs untreated controls (NC), FIG. 1) was “induced marked neurite outgrowth”. Also, the “concentration sufficient to induce a neuritogenic response” value in experiment [3] (organotypic cultures of mouse spiral ganglion neurons) is 100 µM. The “number and extent of nerve fibers in addition to BDNF” value in experiment [3] (with BDNF 10 ng/ml, FIG. 24) is “greatly increased the number and extent of nerve fibers”. Also, the NT-3 induced neuritogenesis entry in experiment [3] (with NT-3 10 ng/ml, FIG. 26) is recorded as “enhanced”.

As to `CC(C)(C)[N+]([O-])=Cc1ccccc1` [PBN, alpha-phenyl N-tertiary-butyl nitrone], the “concentration required for inducing neuritogenesis in PC12 cells” value in the experiment with PC12 cell line [4] is reported as 10 mM.

On to NGF: Nerve growth factor, for which, in the experiment with PC12 cell line [2] (NGF alone), the “concentrations at which the NGF-induced neuritogenic response is saturable” value is at least 10 ng/mL and the neurite elongation entry is recorded as “induced neurite elongation in a dose-dependent manner”.

B1: NT-3: inherent neurotrophic factor in the inner ear, essential for development and survival of cochlear spiral ganglions (protein, UniProt P20783 139-257, looked up)
Neurotrophin-3: YAEHKSHRGEYSVCDSESLWVTDKSSAIDIRGHQVTVLGEIKTGNSPVKQYFYETRCKEARPVKNGCRGIDDKHWNSQCKTSQTYVRALTSENNKLVGWRWIRIDTSCVCALSRKIGRT
Turning to B1, the “neurite outgrowth induced by exogenous neurotrophic factor” value in experiment [3] is reported as “induced significant neurite outgrowth”.

B2: BDNF: Brain-derived neurotrophic factor, the canonical cochlear neuritogenic growth factor (protein, UniProt P23560 19-247, looked up)
Neurotrophic factor BDNF …: APMKEANIRGQGGLAYPGVRTHGTLESVNGPKAGSRGLTSLADTFEHVIEELLDEDQKVRPNEENNKDADLYTSRVMLSSQVPLEPPLLFLLEEYKNYLDAANMSMRVRRHSDPARRGELSVCDSISEWVTAADKKTAVDMSGGTVTVLEKVPVSKGQLKQYFYETKCNPMGYTKEGCRGIDKRHWNSQCRTTQSYVRALTMDSKKRIGWRFIRIDTSCVCTLTIKRGR
Regarding B2, the “KA-induced shift of pre-synaptic densities from typical to apical distributions” value in experiment [1] (FIG. 6) is “reversed this pathologic change”. Also, the “neurite outgrowth induced by exogenous neurotrophic factor” value in experiment [3] is given as “induced significant neurite outgrowth”.

The values above are taken from patent US10576125B2, “Methods for enhancing synaptogenesis and neuritogenesis” (HOUGH EAR INSTITUTE, priority 2016, dated 2020).
